Values of other authors as cited in US20090233885A1, “Compositions and Methods for Fat Reduction” (priority 2006, published 2009).

Tests used:
[1] = total administered amount per treatment

phosphatidylcholine [PC]
total administered amount above which cholinergic side effects (nausea, vomiting, diarrhea, flushing, sweating, bradycardia) occur [1]: exceeds 2000 mg per treatment

sodium deoxycholate [DC]
cell specificity of effect (adipose and muscle cells): nonspecific effects on both adipose and muscle cells
